# Experimental data published in US5874442A, “Tricyclic amides useful for inhibition of G-protein function and for treatment of proliferative disease” (Schering-Plough Corporation, priority 1996, dated 1999).
# Read-outs that look alike come from different tables or passages of the source.
# Key:
# [1] = system: geranylgeranylation of Ras-CVLL in COS cells; experiment: Cell-based COS cell assay: geranylgeranylation of Ras-CVLL; parameters: species or system monkey; details: at concentrations up to 33 μM
# Source text: (§1) Transient expression of val^12 -Ha-Ras-CVLS and […] -Ha-Ras-CVLL in COS monkey kidney cells: Effect of farnesyl protein transferase inhibitors on Ras processing and on disordered cell growth induced by transforming Ras.
# COS monkey kidney cells were transfected by electroporation with the plasmid pSV-SPORT (Gibco/BRL) containing a cDNA insert encoding either Ras-CVLS or Ras-CVLL, leading to transient overexpression of a Ras substrate for either farnesyl protein transferase or geranylgeranyl protein transferase I, respectively (see above). […]
# Membranes were blocked by incubation overnight at 4° C. in PBS containing 2.5% dried milk and 0.5% Tween-20 and then incubated with a Ras-specific monoclonal antibody, Y13-259 (Furth, M. E., et al., (1982), Monoclonal antibodies to the p21 products of the transforming gene of Harvey murine sarcome virus and of the cellular ras gene family, J. Virol. 43:294-304), in PBS containing 1% fetal calf serum for one hour at room temperature. […] The presence of processed and unprocessed Ras-CVLS or Ras-CVLL was detected using a colorimetric peroxidase reagent (4-chloro-1-naphthol) as described by the manufacturer (Bio-Rad).
# [2] = system: Ras-CVLS processing in COS cells; experiment: Cell-based COS cell assay: inhibition of Ras processing (Ras-CVLS); parameters: species or system monkey; details: Primates, COS
# Source text: as §1
# COS monkey kidney cells were transfected by electroporation with the plasmid pSV-SPORT (Gibco/BRL) containing a cDNA insert encoding either Ras-CVLS or Ras-CVLL, leading to transient overexpression of a Ras substrate for either farnesyl protein transferase or geranylgeranyl protein transferase I, respectively (see above).
# Following electroporation, cells were plated into 6-well tissue culture dishes containing 1.5 ml of Dulbecco's-modified Eagle's media (GIBCO, Inc.) supplemented with 10% fetal calf serum and the appropriate farnesyl protein transferase inhibitors. After 24 hours, media was removed and fresh media containing the appropriate drugs was re-added.
# 48 hours after electroporation cells were examined under the microscope to monitor disordered cell growth induced by transforming Ras. Cells expressing transforming Ras become more rounded and refractile and overgrow the monolayer, reminiscent of the transformed phenotype. Cells were then photographed, washed twice with 1 ml of cold phosphate-buffered saline (PBS) and removed from the dish by scraping with a rubber policeman into 1 ml of a buffer containing 25 mM Tris, pH 8.0; 1 mM ethylenediamine tetraacetic acid; 1 mM phenylmethylsulfonyl fluoride; […]; and 0.1 mM pepstatin. Cells were lysed by homogenization and cell debris was removed by centrifugation at 2000× g for 10 min.
# Cellular protein was precipitated by addition of ice-cold trichloroacetic acid and redissolved in […] of SDS-electrophoresis sample buffer. […] Proteins resolved on the gels were electroblotted onto nitrocellulose membranes for immunodetection.
# After washing, membranes were incubated for one hour at room temperature with a 1:5000 dilution of secondary antibody, rabbit anti-rat lgG conjugated to horseradish peroxidase, in PBS containing 1% fetal calf serum. The presence of processed and unprocessed Ras-CVLS or Ras-CVLL was detected using a colorimetric peroxidase reagent (4-chloro-1-naphthol) as described by the manufacturer (Bio-Rad).
# [3] = system: DLD-1 (human colon carcinoma cells); experiment: In vivo anti-tumor studies, subcutaneous DLD-1 tumors in athymic nu/nu mice; parameters: species or system athymic nu/nu female mice; details: Mus musculus, DLD-1, po, […], QID, 7 days per week for 4 weeks, read-out: Average % Tumor Inhibition; for inhibition in vivo at 50 mg/kg: 50 mg/kg p.o.; for inhibition in vivo at 10 mg/kg: 10 mg/kg p.o.
# Method: Tumor bearing animals are selected and randomized when the tumors are established. Animals are treated with vehicle (β-cyclodextrin for i.p. or corn oil for p.o.) only or with a compound of the present invention in vehicle four times a day (QID) for 7 days per week for 4 weeks. The percent inhibition of tumor growth relative to vehicle controls is determined by tumor measurements.
# [4] = system: SW620-BAG human colon carcinoma cells expressing an activated K-ras gene; experiment: Cell mat assay, SW620-BAG tumor cells; type: cell-based; details: Homo sapiens, SW-620, 336 h, read-out: Tumor (SW620) IC50, Mat assay, 14 d
# Method: (§2) Compound-induced colony inhibition was assayed by addition of serial dilutions of compound directly to the growth medium 24 h after tumor cell planting, and incubating cells for an additional 14 d to allow colony formation. Assays were terminated by rinsing monolayers twice with phosphate-buffered saline (PBS), fixing the monolayers with a 1% glutaraldehyde solution in PBS, then visualizing tumor cells by staining with X-Gal (Price, J., et al., Lineage analysis in the vertebrate nervous system by retrovirus-mediated gene transfer, Proc. Natl. Acad. Sci.84, 156-160(1987)). […] Both IC50 values were obtained by determining the density of tumor cells and mat cells by visual inspection and enumeration of cells per colony and the number of colonies under the microscope.
# (§3) Additional assays were carried out by following essentially the same procedure as described above, but with substitution of alternative indicator tumor cell lines in place of the T24-BAG cells. The assays were conducted using either DLD-1-BAG human colon carcinoma cells expressing as activated K-ras gene or SW620-BAG human colon carcinoma cells expressing an activated K-ras gene.
# [5] = system: DLD-1-BAG human colon carcinoma cells; experiment: Cell mat assay, DLD-1-BAG tumor cells; type: cell-based; details: Homo sapiens, DLD-1, 336 h, read-out: Tumor (DLD-1) IC50
# Method: as §2, §3
# [6] = system: Normal human HEPM fibroblasts; experiment: Cell mat assay, normal cells (cell mat); type: cell-based; details: Homo sapiens, Fibroblast, 336 h, read-out: Normal IC50
# Method: as §2
# [7] = system: T24-BAG4 human bladder carcinoma cells expressing an activated H-ras gene; experiment: Cell mat assay, T24-BAG4 tumor cells; type: cell-based; details: Homo sapiens, 336 h, read-out: Tumor (T-24) IC50
# Method: as §2
# [8] = molecular target: T1, geranylgeranyl protein transferase (GGPT) I (Rattus norvegicus, UniProt P53610+Q04631); experiment: In vitro enzyme assay: inhibition of geranylgeranyl protein transferase I (GGPT), Ras-CVLL as acceptor; type: biochemical
# T1 construct: were partially purified from rat brain by ammonium sulfate fractionation; from tissue; host or cells: rat brain (ammonium sulfate fractionation, Q-Sepharose)
# Source text: (§4) 1. In vitro enzyme assays:
# (§5) Inhibition of farnesyl protein transferase and geranylgeranyl protein transferase.
# Both farnesyl protein transferase (FPT) and geranylgeranyl protein transferase (GGPT) I were partially purified from rat brain by ammonium sulfate fractionation followed by Q-Sepharose (Pharmacia, Inc.) anion exchange chromatography essentially as described by Yokoyama et al (Yokoyama, K., et al., (1991), A protein geranylgeranyltransferase from bovine brain: Implications for protein prenylation specificity, Proc. Natl. Acad. Sci USA 88: 5302-5306, the disclosure of which is incorporated herein by reference thereto). Human farnesyl protein transferase was also expressed in E. coli, using cDNA clones encoding both the a and b subunits. The methods used were similar to those published (Omer, C. et al., (1993), Characterization of recombinant human farnesyl protein transferase: Cloning, expression, farnesyl diphosphate binding, and functional homology with yeast prenyl-protein transferases, Biochemistry 32:5167-5176). Human farnesyl protein transferase was partially-purified from the soluble protein fraction of E. coli as described above. The tricyclic farnesyl protein transferase inhibitors disclosed herein inhibited both human and rat enzyme with similar potencies. […]
# [9] = molecular target: T2, farnesyl protein transferase (FPT) (Rattus norvegicus, UniProt Q02293+Q04631); experiment: In vitro enzyme assay: inhibition of farnesyl protein transferase (FPT), [3H]farnesyl transfer to Ras-CVLS; type: biochemical
# T2 construct: were partially purified from rat brain by ammonium sulfate fractionation; from tissue; host or cells: rat brain (ammonium sulfate fractionation, Q-Sepharose)
# Method: as §4, §5
# Human farnesyl protein transferase was also expressed in E. coli, using cDNA clones encoding both the a and b subunits. […] Human farnesyl protein transferase was partially-purified from the soluble protein fraction of E. coli as described above. […] Two forms of val^12 -Ha-Ras protein were prepared as substrates for these enzymes, differing in their carboxy terminal sequence. One form terminated in cysteine-valine-leucine-serine (Ras-CVLS) the other in cystein-valine-leucine-leucine (Ras-CVLL). Ras-CVLS is a substrate for the farnesyl protein transferase while Ras-CVLL is a substrate for geranylgeranyl protein transferase I. The cDNAs encoding these proteins were constructed so that the proteins contain an amino-terminal extension of 6 histidine residues. Both proteins were expressed in Escherichia coli and purified using metal chelate affinity chromatography. The radiolabelled isoprenyl pyrophosphate substrates, [^3 H]farnesyl pyrophosphate and [^3 H] geranylgeranyl pyrophosphate, were purchased from DuPont/New England Nuclear.
# The reaction was allowed to proceed for 30 minutes at room temperature and then stopped with 0.5 ml of 4% sodium dodecyl sulfate (SDS) followed by 0.5 ml of cold 30% TCA. Samples were allowed to sit on ice for 45 minutes and precipitated Ras protein was then collected on GF/C filter paper mats using a Brandel cell harvester. […] Percent inhibition was calculated relative to the DMSO vehicle control.
# HTB 177 = experiment: Soft agar assay; type: cell-based; details: Homo sapiens; HTB 177 (NSCLC) K ras mutation; read-out: IC50, inhibition of human tumor cell growth, soft agar
# Method: (§6) Anchorage-independent growth is a characteristic of tumorigenic cell lines. Human tumor cells are suspended in growth medium containing 0.3% agarose and an indicated concentration of a farnesyl transferase inhibitor. The solution is overlayed onto growth medium solidified with 0.6% agarose containing the same concentration of farnesyl transferase inhibitor as the top layer. […] After incubation, the colonies are stained by overlaying the agar with a solution of MTT (3-[4,5-dimethylthiazol-2-yl]-2,5-diphenyltetrazolium bromide, Thiazolyl blue) (1 mg/mL in PBS). Colonies are counted and the IC50's determined.
# HTB 175 = experiment: Soft agar assay; type: cell-based; details: Homo sapiens; HTB 175 (SCLC) ras mut. not detected; read-out: IC50, inhibition of human tumor cell growth, soft agar
# Method: as §6
# A549 = experiment: Soft agar assay; type: cell-based; details: Homo sapiens; A549 (lung) K ras mutation; read-out: IC50, inhibition of human tumor cell growth, soft agar
# Method: as §6
# K ras NIH 3T3 = experiment: Soft agar assay; type: cell-based; details: Mus musculus, NIH3T3, read-out: IC50, inhibition of human tumor cell growth, soft agar
# H ras NIH 3T3 = experiment: Soft agar assay; type: cell-based; details: Mus musculus, NIH3T3, read-out: IC50, inhibition of human tumor cell growth, soft agar
# T1 sequence (P53610 whole entry, one chain of several): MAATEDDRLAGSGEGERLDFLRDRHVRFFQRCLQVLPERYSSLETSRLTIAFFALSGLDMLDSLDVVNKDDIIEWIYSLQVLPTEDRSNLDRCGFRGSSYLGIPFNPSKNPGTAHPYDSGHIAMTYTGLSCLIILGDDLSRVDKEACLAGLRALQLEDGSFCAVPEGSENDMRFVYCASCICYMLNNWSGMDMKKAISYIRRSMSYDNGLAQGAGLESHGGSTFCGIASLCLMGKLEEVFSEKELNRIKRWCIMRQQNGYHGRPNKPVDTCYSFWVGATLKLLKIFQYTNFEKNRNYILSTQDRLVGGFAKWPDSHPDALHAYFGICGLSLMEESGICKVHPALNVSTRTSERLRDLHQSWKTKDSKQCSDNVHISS
smiles,measurement,setting,value
O=C(Cc1cc[n+]([O-])cc1)N1CCC(=C2c3ccc(Cl)c(Br)c3CCc3cc(Br)cnc32)CC1 [Example 2],block of geranylgeranylation of Ras-CVLL,[1],did not block the geranylgeranylation of Ras-CVLL
same,IC50,"[2]; Table 3, COS cells, read-out: Inhibition of Ras Processing IC50",250 nM
same,inhibition in vivo at 50 mg/kg,[3]; Experiment No. 1,47%
same,inhibition in vivo at 10 mg/kg,[3]; Experiment No. 2,25%
same,inhibition in vivo at 50 mg/kg,[3]; Experiment No. 3,52.7%
same,inhibition in vivo at 10 mg/kg,[3]; Experiment No. 4,31.9%
O=C(Cc1cc[n+]([O-])cc1)N1CCN(C2c3ccc(Cl)c(Br)c3CCc3cc(Br)cnc32)CC1 (racemic) [Example 5B],IC50,[4],10000 nM
same,IC50,[5],3100 nM
same,IC50,[6],> 25000 nM
same,IC50,[7],< 1600 nM
same,IC50,"[2]; read-out: Inhibition of Ras Processing IC50, Table 3, COS cells",50 nM
same,IC50,[8],> 300000 nM
same,IC50,[9],~3 nM
"NC(=O)N1CCC(CC(=O)N2CCC(C3c4ncc(Br)cc4CCc4cc(Cl)cc(Cl)c43)CC2)CC1 (single isomer, unassigned) [Example 18]",IC50,HTB 177,200 nM
same,IC50,HTB 175,600 nM
same,IC50,A549,300 nM
same,IC50,K ras NIH 3T3,800 nM
same,inhibition in vivo at 50 mg/kg,[3]; Experiment No. 1,73%
same,inhibition in vivo at 10 mg/kg,[3]; Experiment No. 2,43%
same,IC50,H ras NIH 3T3,175 nM
"O=C(Cc1cc[n+]([O-])cc1)N1CCN(C2c3ncc(Br)cc3CCc3cccc(Cl)c32)CC1 (single isomer, unassigned) [Example 20]",IC50,[8],> 38000 nM
same,IC50,[9],6.2 nM
